Measurements published in patent US20240082275A1, “Pharmaceutical formulations comprising 5-Chloro-N4-[2-(dimethylphosphoryl)phenyl]-N2-{2-methoxy-4-[4-(4-methylpiperazin-1-yl)piperidin-1-yl]phenyl}pyrimidine-2,4-diamine” (Takeda Pharmaceutical Company Limited, priority 2017, published 2024).

Assay: Solid-state properties of brigatinib Form A (hygroscopicity, polymorphic conversion)
Type: physicochemical

In the case of COc1cc(N2CCC(N3CCN(C)CC3)CC2)ccc1Nc1ncc(Cl)c(Nc2ccccc2P(C)(C)=O)n1 [Brigatinib Form A, 5-chloro-N4-[2-(dimethylphosphoryl)phenyl]-N2-{2-methoxy-4-[4-(4-methylpiperazin-1-yl)piperidin-1-yl]phenyl}pyrimidine-2,4-diamine], the hygroscopicity is reported as “non-hygroscopic” and the “conversion to other polymorphic forms” value (solvent-mediated or solid-solid transitions, elevated temperature, elevated humidity, mechanical pressure or grinding) is reported as “does not convert to other polymorphic forms”.
